According to US20170290328A1, “COMPOSITIONS AND METHODS FOR APPLYING AGRICULTURAL PRODUCTS” (priority 2014, published 2017):

Assays:
Marestail [1] = assay: Instigate Trials, weed control evaluation; type: in vivo
Protocol: (§1) Each treatment was comprised of Instigate applied at 3 oz product/ac, diluted and applied at 10 gallons/acre spray volume.
(§2) Trials were conducted in Indiana, North Dakota, and Ohio (1 location per state).
(§3) Weed species varied by location but included glyphosate resistant marestail or kochia. Weed control (herbicide efficacy) evaluations were taken at approximately 7, 14, and 28 days after herbicides were applied.

kochia [2] = assay: Instigate Trials, weed control evaluation; type: in vivo; settings: North Dakota, 27 days after treatment, with methylated soybean oil and AU-110 and F emulsifiers
Protocol: as §1, §2, §3

Marestail [3] = assay: Roundup PowerMax Plus Sharpen Trials, weed control evaluation; type: in vivo
Protocol: (§4) Each treatment was comprised of a mixture of Roundup PowerMax (glyphosate potassium) at 11 oz/ac plus Sharpen (saflufenacil) diluted and applied at 10 gallons/acre spray volume. A-110 is a polymeric nonionic and alkyl and aryl ethoxylate blend emulsifier commercially available from Adjuvants Unlimited (Tulsa, Okla). Emulsifier “D” is a blend of polyoxyalkenes and ethoxylated castor oil and other components.
(§5) Trials were conducted in Indiana, North Dakota, and Ohio (1 location per state). Weed species varied by location but included glyphosate resistant marestail or kochia. Weed control (herbicide efficacy) evaluations were taken at approximately 7, 14, and 28 days after herbicides were applied.

kochia [4] = assay: as above; type: in vivo; settings: North Dakota, 10% methyl salicylate substituted for methylated soybean oil
Protocol: as §4, §5

Marestail [5] = assay: Additional field trial, Clarity + Roundup PowerMax with adjuvant formulations, weed control; type: in vivo, Conyza canadensis; settings: Clarity tank mixed with Roundup PowerMax, Example 2
Protocol: Additional field trials were performed that compared Sharpen (active ingredient: saflufenacil ([2-chloro-4-fluoro-5-(3-methyl-2,6-dioxo-4-(trifluoromethyl)-3, 6-dihydro-1(2H)-pyrimidinyl)benzoyl]-N-isopropyl-N-methylsulfamide)) or Clarity (active ingredient: diglycolamine salt of 3,6-dichloro-o-anisic acid) to formulations described herein.

wheat = assay: Paraquat Concentrate Trials, weed control evaluation; type: in vivo; settings: North Dakota; Paraquat Concentrate 0.45 pt product/ac
Protocol: (§6) Each treatment was comprised of Paraquat Concentrate applied at 0.45 pt product/ac, diluted and applied at 10 gallons/acre spray volume.
as §2, §3

Marestail [6] = assay: as above; type: in vivo; settings: Indiana; Paraquat Concentrate Trials (text prints Instigate)
Protocol: as §6, §2, §3

common lambsquarters = assay: as above; type: in vivo; settings: North Dakota; Paraquat Concentrate 0.45 pt product/ac
Protocol: as §6, §2, §3

**Q.** `COC(=O)c1ccccc1O` [methyl salicylate] was tested. Which “marestail control (in words)” value (Marestail [1]; Indiana, Instigate 3 oz product/ac) did it give?
**A.** did not increase marestail control

**Q.** And the “marestail control (in words)” value (Marestail [1]; Ohio, Instigate, with methylated soybean oil and F emulsifier)?
**A.** increased marestail control

**Q.** What about the “kochia control (in words)” value (kochia [2]) of the same compound?
**A.** numerically greater

**Q.** What about the “marestail control (in words)” value (Marestail [3]; Indiana, Roundup PowerMax 11 oz/ac plus Sharpen) of the same compound?
**A.** no increase in control

**Q.** And the “marestail control (in words)” value (Marestail [3]; Ohio, Roundup PowerMax 11 oz/ac plus Sharpen)?
**A.** numerically greater

**Q.** And the “marestail control (in words)” value (Marestail [3]; Ohio, Roundup PowerMax plus Sharpen, 14 days after treatment, with D emulsifier and F emulsifiers)?
**A.** greater

**Q.** What about the “kochia control (in words)” value (kochia [4]; with the AU-110 or F emulsifier) of the same compound?
**A.** not

**Q.** And the “kochia control (in words)” value (kochia [4]; with the D emulsifier)?
**A.** increased control

**Q.** And the “Change of control of glyphosate-resistant marestail (in words)” value (Marestail [5])?
**A.** did not increase control

**Q.** What about the “wheat control (in words)” value (wheat) of the same compound?
**A.** did not increase control

**Q.** What about the “marestail control (in words)” value (Marestail [6]) of the same compound?
**A.** did not increase marestail control

**Q.** What about the “common lambsquarters control (in words)” value (common lambsquarters) of the same compound?
**A.** did not increase control
